Results reported in PubChem BioAssay AID1963854 (Molecular Pharmacology Branch, DTP, NCI, 2024).

System: 186277-243-T-J2-PDC complex spheroid viability
Experiment: Anticancer human tumor 186277-243-T-J2-PDC patient-derived colon adenocarcinoma cell line growth inhibition [POLQ]
Conditions: for IC50: curve of first compound; for viability, T/C: stronger effect = lower value
Outline: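 PDC + HUVEC + MSC complex spheroids; POLQ inhibitors ± partner drugs; top conc. at/near clinical Cmax, else 10 microM (SN-38 1 microM), half-log dilutions; 37 degrees C, 5% CO2.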
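Also: spheroids exposed to compounds for seven days.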
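For viability, T/C in this document: 100% = DMSO vehicle control viability.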

CC(=O)O[C@H]1C(=O)[C@@]2(C)[C@H]([C@H](OC(=O)c3ccccc3)[C@]3(O)C[C@H](OC(=O)[C@H](O)[C@@H](NC(=O)c4ccccc4)c4ccccc4)C(C)=C1C3(C)C)[C@]1(OC(C)=O)CO[C@@H]1C[C@@H]2O + Cc1cccc(N(C)C(=O)C2C(O)CCN2c2nc(C)cc(C(F)(F)F)c2C#N)c1
IC50 (second compound 0.0316 µM): < 9.49 nM
IC50 (second compound 0.1 µM): < 9.49 nM
IC50 (second compound 0.316 µM): < 9.49 nM
IC50 (second compound 1 µM): < 9.49 nM
IC50 (second compound 3.16 µM): < 9.49 nM
IC50 (second compound 10 µM): < 9.49 nM
viability, T/C (second compound 0.0316 µM, first compound 0.00949 µM): 37.5%
viability, T/C (second compound 0.0316 µM, first compound 0.03 µM): 10.3%
viability, T/C (second compound 0.0316 µM, first compound 0.0949 µM): 7.26%
viability, T/C (second compound 0.0316 µM, first compound 0.3 µM): 5.79%
viability, T/C (second compound 0.0316 µM, first compound 0.949 µM): 5.96%
viability, T/C (second compound 0.0316 µM, first compound 3 µM): 6.11%
viability, T/C (second compound 0.1 µM, first compound 0.00949 µM): 35%
viability, T/C (second compound 0.1 µM, first compound 0.03 µM): 10.9%
viability, T/C (second compound 0.1 µM, first compound 0.0949 µM): 7.5%
viability, T/C (second compound 0.1 µM, first compound 0.3 µM): 5.9%
viability, T/C (second compound 0.1 µM, first compound 0.949 µM): 5.52%
viability, T/C (second compound 0.1 µM, first compound 3 µM): 6.96%
viability, T/C (second compound 0.316 µM, first compound 0.00949 µM): 45.3%
viability, T/C (second compound 0.316 µM, first compound 0.03 µM): 10.2%
viability, T/C (second compound 0.316 µM, first compound 0.0949 µM): 6.71%
viability, T/C (second compound 0.316 µM, first compound 0.3 µM): 5.81%
viability, T/C (second compound 0.316 µM, first compound 0.949 µM): 5.53%
viability, T/C (second compound 0.316 µM, first compound 3 µM): 5.53%
viability, T/C (second compound 1 µM, first compound 0.00949 µM): 34.8%
viability, T/C (second compound 1 µM, first compound 0.03 µM): 12.4%
viability, T/C (second compound 1 µM, first compound 0.0949 µM): 6.22%
viability, T/C (second compound 1 µM, first compound 0.3 µM): 5.71%
viability, T/C (second compound 1 µM, first compound 0.949 µM): 5.47%
viability, T/C (second compound 1 µM, first compound 3 µM): 5.47%
viability, T/C (second compound 3.16 µM, first compound 0.00949 µM): 27.2%
viability, T/C (second compound 3.16 µM, first compound 0.03 µM): 10.5%
viability, T/C (second compound 3.16 µM, first compound 0.0949 µM): 6.13%
viability, T/C (second compound 3.16 µM, first compound 0.3 µM): 5.47%
viability, T/C (second compound 3.16 µM, first compound 0.949 µM): 5.6%
viability, T/C (second compound 3.16 µM, first compound 3 µM): 5.16%
viability, T/C (second compound 10 µM, first compound 0.00949 µM): 20.3%
viability, T/C (second compound 10 µM, first compound 0.03 µM): 6.86%
viability, T/C (second compound 10 µM, first compound 0.0949 µM): 5.75%
viability, T/C (second compound 10 µM, first compound 0.3 µM): 5.46%
viability, T/C (second compound 10 µM, first compound 0.949 µM): 5.93%
viability, T/C (second compound 10 µM, first compound 3 µM): 6.1%
